Laboratory results reported in patent publication US5527811A, “Isoquinolinyl compounds which are useful in treating cerebral vascular disorders” (Takeda Chemical Industries, Ltd., priority 1993, dated 1996).
Where a name gives a salt, the structure may show the parent alone.

Tested on: transient cerebral ischemia in mongolian gerbils
Assay: Protective effect of cerebralischemia: survival ratio after bilateral common carotid occlusion and reperfusion in gerbils
Type: in vivo, mongolian gerbil
Details: Meriones unguiculatus, ip, 8 h, read-out: Survival ratio
Description: Test Example 1 Protective effect of cerebralischemia
Male mongolian gerbils (Seiwa/8-10 wks) (n=8-10) were used. Bilateral common carotid arteries were occluded after the incision of the center of the neck under ether anesthesia. Global cerebral ischemia was induced by the occlusion of bilateral common carotid arteries (15 minutes), and after that these arteries were reperfused. Test sample was administered intraperiatonelly 30 minutes before occlusion and 90 minutes after reperfusion. In the control group, vehicle (distilled water, saline or 5% gum arabic) was administered in the same fashion. Survival ratio was estimated at 8 hr after reperfusion (Table 2).

Going from Cn1c(CNC(=O)Nc2cccc(C(=O)O)c2)c(-c2ccccc2)c2cc(Cl)ccc2c1=O [17 (Na), N-(3-Carboxyphenyl)-N'-[(6-chloro-1,2-dihydro-2-methyl-1-oxo-4-phenylisoquinolin-3-yl)methyl]urea sodium salt] to Cn1c(CNC(=O)Cc2cccc(C(=O)O)c2)c(-c2ccccc2)c2cc(Cl)ccc2c1=O [28 (Na), N-(6-Chloro-1,2-dihydro-2-methyl-1-oxo-4-phenylisoquinolin-3-yl)methyl-α-(3-carboxyphenyl)acetamide sodium salt], the responders at 5 mg/kg rises from 67% to 75%.

Compared with CC(C)Oc1cccc(N(CC(=O)O)C(=O)NCc2c(-c3ccccc3)c3cc(Cl)ccc3c(=O)n2C)c1 [22 (Ma), N-Carboxymethyl-N'-[(6-chloro-1,2-dihydro-2-methyl-1-oxo-4-phenylisoquinolin-3-yl)methyl]-N-(3isopropoxyphenyl)urea sodium salt], CC(C)Oc1cccc(OC(=O)NCc2c(-c3ccccc3)c3cc(Cl)ccc3c(=O)n2C)c1 [Example 29, 3-Isopropoxyphenyl N-[(6-chloro-1,2-dihydro-2-methyl-1-oxo-4-phenylisoquinolin-3-yl)methyl]carbamate] is higher in responders at 5 mg/kg: 63% for the first, 75% for the second.

Same assay, conditions: Meriones unguiculatus; 0.3 mg/kg, ip; 30 min before occlusion and 90 min after reperfusion; estimated 8 hr after reperfusion; control 0

CCN(CC)CCc1cccc(NC(=O)NCc2c(-c3ccccc3)c3cc(Cl)ccc3c(=O)n2C)c1 [41 (HCl), N-[(6-Chloro-1,2-dihydro-2-methyl-1-oxo-4-phenylisoquinolin-3-yl)methyl]-N'-{3-[2-(diethylamino)ethyl]phenyl}urea] showed a responders at 0.3 mg/kg of 75%.

Same assay, conditions: Meriones unguiculatus; 5 mg/kg, ip; 30 min before occlusion and 90 min after reperfusion; estimated 8 hr after reperfusion; control 0; read-out: Survival ratio

CN(C)c1cccc(NC(=O)NCc2c(-c3ccccc3)c3cc(Cl)ccc3c(=O)n2C)c1 [14 (HCl), N-[(6-Chloro-1,2-dihydro-2-methyl-1-oxo-4-phenylisoquinolin-3-yl)methyl]-N'-(3-N,N-dimethylaminophenyl)urea hydrochloride] and CN(C)CCCc1cccc(NC(=O)NCc2c(-c3ccccc3)c3cc(Cl)ccc3c(=O)n2C)c1 [44 (HCl), N-[(6-Chloro-1,2-dihydro-2-methyl-1-oxo-4-phenylisoquinolin-3-yl)methyl]-N'-{3-[3-(dimethylamino)propyl]phenyl}urea] are the same in responders at 5 mg/kg: 63% for the first, 63% for the second.

Going from CCN(CC)Cc1cccc(NC(=O)NCc2c(-c3ccccc3)c3cc(Cl)ccc3c(=O)n2C)c1 [39 (HCl), N-[(6-Chloro-1,2-dihydro-2-methyl-1-oxo-4-phenylisoquinolin-3-yl)methyl]-N'-[3-(diethylaminomethyl)phenyl]urea] to CCN(CC)CCc1cccc(NC(=O)NCc2c(-c3ccccc3)c3cc(Cl)ccc3c(=O)n2C)c1 [41 (HCl), N-[(6-Chloro-1,2-dihydro-2-methyl-1-oxo-4-phenylisoquinolin-3-yl)methyl]-N'-{3-[2-(diethylamino)ethyl]phenyl}urea], the responders at 5 mg/kg rises from 63% to 88%.

Compared with Cn1c(CNC(=O)Nc2cccc(CN3CCCC3)c2)c(-c2ccccc2)c2cc(Cl)ccc2c1=O [40 (HCl), N-[(6-Chloro-1,2-dihydro-2-methyl-1-oxo-4-phenylisoquinolin-3-yl)methyl]-N'-[3-(1-pyrrolidinomethyl)phenyl]urea], Cn1c(CNC(=O)Nc2cccc(CN)c2)c(-c2ccccc2)c2cc(Cl)ccc2c1=O [51 (HCl), N-[3-(Aminomethyl)phenyl]-N'-[(6-chloro-1,2-dihydro-2-methyl-1-oxo-4-phenylisoquinolin-3-yl)methyl]urea hydrochloride] is higher in responders at 5 mg/kg: 75% for the first, 100% for the second.

Compared with CN(C)Cc1ccc(NC(=O)NCc2c(-c3ccccc3)c3cc(Cl)ccc3c(=O)n2C)cc1 [43 (HCl), N-[(6-Chloro-1,2-dihydro-2-methyl-1-oxo-4-phenylisoquinolin-3-yl)methyl]-N'-[4-(dimethylaminomethyl)phenyl]urea], CN(C)CCOc1cccc(NC(=O)NCc2c(-c3ccccc3)c3cc(Cl)ccc3c(=O)n2C)c1 [45 (HCl), N-[(6-Chloro-1,2-dihydro-2-methyl-1-oxo-4-phenylisoquinolin-3-yl)methyl]-N'-{3-[2-(dimethylamino)ethoxy]phenyl}urea] is higher in responders at 5 mg/kg: 63% for the first, 82% for the second.

Compared with Cn1c(CNC(=O)NCCCn2ccnc2)c(-c2ccccc2)c2cc(Cl)ccc2c1=O [47 (HCl), N-[(6-Chloro-1,2-dihydro-2-methyl-1-oxo-4-phenylisoquinolin-3-yl)methyl]-N'-[3-(1-imidazolyl)propyl]urea], CNCc1cccc(NC(=O)NCc2c(-c3ccccc3)c3cc(Cl)ccc3c(=O)n2C)c1 [48 (HCl), N-[(6-Chloro-1,2-dihydro-2-methyl-1-oxo-4-phenylisoquinolin-3-yl)methyl]-N'-[3-(methylamino)methylphenyl]urea hydrochloride] is higher in responders at 5 mg/kg: 75% for the first, 88% for the second.

First: CCNCc1cccc(NC(=O)NCc2c(-c3ccccc3)c3cc(Cl)ccc3c(=O)n2C)c1 [49 (HCl), N-[(6-Chloro-1,2-dihydro-2-methyl-1-oxo-4-phenylisoquinolin-3-yl)methyl]-N'-[3-(ethylaminomethyl)phenyl]urea hydrochloride]
Second: Cn1c(CNC(=O)Nc2ccc3c(c2)CCC3N)c(-c2ccccc2)c2cc(Cl)ccc2c1=O (stereo not shown) [50 (HCl), N-(1-Aminoindan-5-yl)-N'-[(6-chloro-1,2-dihydro-2-methyl-1-oxo-4-phenylisoquinolin-3-yl)methyl]urea hydrochloride]
The responders at 5 mg/kg of the first is higher: 88% for the first, 75% for the second.

First: CN(C)Cc1cccc(NC(=O)NCc2c(-c3ccc(F)cc3)c3ccccc3c(=O)n2C)c1 [53 (HCl), N-{[4-(4-Fluorophenyl)-1,2-dihydro-2-methyl-1-oxoisoquinolin-3-yl]methyl}-N'-[3-(dimethylaminomethyl)phenyl]urea hydrochloride]
Second: CC(C)Oc1cccc(NC(=O)NCc2c(-c3ccccc3)c3ccccc3c(=O)n2C)c1 [Example 16, N-[(1,2-Dihydro-2-methyl-1-oxo-4-phenylisoquinolin-3yl)methyl]-N'-(3-isopropoxyphenyl)urea]
The responders at 5 mg/kg of the first is lower: 75% for the first, 88% for the second.

First: CC(C)Oc1cccc(N(C)C(=O)N(C)Cc2c(-c3ccccc3)c3cc(Cl)ccc3c(=O)n2C)c1 [Example 24, N-[(6-Chloro-1,2-dihydro-2-methyl-1-oxo-4-phenylisoquinolin-3-yl)methyl]-N'-(3-isopropoxyphenyl)-N,N'-dimethylurea]
Second: CC(C)Oc1cccc(CC(=O)NCc2c(-c3ccccc3)c3cc(Cl)ccc3c(=O)n2C)c1 [Example 27, N-(6-Chloro-1,2-dihydro-2-methyl-1-oxo-4-phenylisoquinolin-3-yl)methyl-α-(3-isopropoxyphenyl)acetamide]
The responders at 5 mg/kg of the first is lower: 75% for the first, 88% for the second.

For CC(C)Oc1cccc(CC(=O)OCc2c(-c3ccccc3)c3cc(Cl)ccc3c(=O)n2C)c1 [Example 32, (6-Chloro-1,2-dihydro-2-methyl-1-oxo-4-phenylisoquinolin-3-yl)methyl α-(3-isopropoxyphenyl)acetate], the responders at 5 mg/kg was 63%.
